Laboratory results from patent publication US4223016A, “Peptides” (Beecham Group Limited, priority 1977, dated 1980).
Where a SMILES comes first, the peptide text is derived from it. Where no end group is shown, it is not given here.

Key:
[1] = system: Rat Peritoneal Mast Cells; assay: Histamine release from rat peritoneal mast cells (Rat Mast Cell in vitro test); format: cell-based; details: for EC50: average of a number of experiments, read-out: ACTIVITY: average concentration of peptide to give approximately 50% release of available histamine from rat mast cells
Excerpt: (§1) (a) (1) Histamine, (2) Cr^51 and (3) Lactic Dehydrogenase Release from Rat Peritoneal Mast Cells (Rat Mast Cell in vitro test)
(§2) Mast cells, derived from the peritoneal washings of three male, outbred Wistar rates (250-300 g), were purified by the procedure according to Cooper and Stanworth (Preparative biochem. 4(2), 105, 1975).
(§3) The purified cells were washed twice in Dulbecco's incomplete (i.e. free from mineral salts) buffer and then resuspended in Dulbecco's medium to the required volume. In a typical experiment, sufficient cells were available for 30 duplicate challenges, i.e. 60 samples and in this case the resuspension volume employed was 6.1 mls. 0.1 ml of cell suspension were taken for estimating the cell count.
One third of the cell suspension was employed. To 0.9 ml duplicate aliquots of challenge solution, prepared in complete Dulbecco's medium and prewarmed to 37° C., was added 0.1 ml of cell suspension. The solutions were then shaken gently, and allowed to incubate for 5 minutes at 37° C. The reaction tubes were then quickly removed from the incubator and placed in an ice bath. Supernatants were then seqparated from the cell population following centrifugation for 3 minutes at 1000 r.p.m. The cell residues were then treated with 2 mls of 0.4 N perchloric acid and allowed to stand for approximately 30 minutes at ambient temperature. The precipitated protein was removed by centrifugation and the supernatant solutions set aside for histamine analysis. The original supernatant solutions were treated with 1.0 ml of 0.8 N perchlorate and then treated in a similar manner to the cell residues. Histamine was measured by the method according to Evans, Lewis and Thompson (Life Sciences, 12, 327, 1973) using a Technicon Auto-analyser. Histamine release was calculated as a percentage of total histamine available in each challenge solution.

[2] = system: Rat Peritoneal Mast Cells; assay: Cr^51 and lactic dehydrogenase (LDH) release from rat peritoneal mast cells; format: cell-based; details: Rat Mast Cells in vitro
Excerpt: as §1, §2, §3
One third of the cell suspension was employed. […] Activity present in the whole recovered supernatants was measured using a Tracer Laboratory Spectromatic γ counter. The percentage of Cr^51 released was assessed in relation to the values obtained for the positive and negative control solutions.
One third of the cell suspension was employed. […] The solutions were incubated at ambient temperature for 20 minutes and the fluorescence emission was then measured. […] The LDH activity was assessed in terms of the increase of fluorescence over control due to NADH formation following lactate addition. […]

Rat Skin = assay: Skin test, intradermal titration in rat skin in vivo; details: read 20 minutes after intradermal challenge
Procedure: (§4) Skin tests were carried out in the shaved backs of animals (rats and baboons) immediately after intravenous injection of pontamine sky blue (5%) in aqueous sodium chloride solution (0.9%) at a dose of 0.1 ml per kilogram of body weight in the case of rats and 5 ml per animal in the case of baboons.
(§5) Peptide in aqueous sodium chloride solution (0.9%), or saline control, were injected intradernally in 0.05 ml or 0.10 ml volumes. Skin reactions were read 20 minutes after intradernal challenge.

Baboon Skin = assay: Skin test, intradermal titration in baboon skin in vivo; details: for ACTIVITY: average concentration of peptide to give an end point in intradernal titrations in baboon skin: read 20 minutes after intradermal challenge
Procedure: as §4, §5

[3] = system: peritoneal mast cells of ovalbumen-immunised Brown Norway rats; assay: Cross desensitisation between antigen and peptide in the in vitro rat mast cell system; format: cell-based
Procedure: (c) Cross Desensitisation in the vitro rat mast cell system between antigen and peptide
Brown Norway rats were immunised intraperitoneally with 100 μg of ovalbumen (XOA) in lmg `alum`. On day 27, peritoneal mast cells were removed, bulked and washed. Aliquots of cells were desensitised by the addition of 4×5 minute incubations with various XOA or peptide concentrations or buffer alone. The cells were then submitted to an optimal histamine releasing challenge of peptide, XOA, or challenged with buffer alone.

[4] = cells desensitised with the substance in 4 rising steps (BRL 21547 5 × 10^-8 to 10^-6 M; XOA 0.005 to 0.1 μg/ml), challenge Buffer
[5] = cells desensitised with the substance in 4 rising steps, challenge BRL 21547 (10^-5 M)
[6] = cells desensitised with the substance in 4 rising steps, challenge XOA lμg/ml
[7] = desensitisation steps 1-4 Buffer, challenge with the substance (BRL 21547 10^-5 M; XOA lμg/ml)

| Molecule | EC50 [1] [µM] | Inhibition of Activity ([1]; inhibition of the peptide's histamine release by Intal (10^-4)) [%] | LDH/^51 Cr Release ([2]; at 10^-6 M) | ACTIVITY: average concentration of peptide to give an end point in intradernal titrations in rat skin (Rat Skin) [µM] | ACTIVITY: average concentration of peptide to give an end point in intradernal titrations in baboon skin (Baboon Skin) [nM] | LDH/^51 Cr Release ([2]; at 10^-4 M peptide) | Inhibition of Activity (Baboon Skin; by Antihistamine or Intal-like drug) | cross-desensitisation in rat mast cells in vitro between peptide and antigen (in words) [3] | Total average % histamine release [3, 4] [%] | Total average % histamine release [3, 5] [%] | Total average % histamine release [3, 6] [%] | Total average % histamine release [3, 7] [%] |
| --- | --- | --- | --- | --- | --- | --- | --- | --- | --- | --- | --- | --- |
| COC(=O)[C@H](Cc1ccccc1)NC(=O)[C@H](Cc1ccccc1)NC(=O)CNC(=O)[C@H](CO)NC(=O)CNC(=O)[C@H](CCCCN)NC(=O)[C@@H](NC(=O)[C@@H](N)CCCCN)[C@@H](C)O [Example No. 1, LysThrLysGlySerGlyPhePheOMe] (H-KTKGSGFF-OMe) | 7.5 | 50 | None | 100 | 500 | – | – | – | – | – | – | – |
| COC(=O)[C@H](Cc1ccccc1)NC(=O)[C@H](Cc1ccccc1)NC(=O)CNC(=O)[C@H](CO)NC(=O)CNC(=O)[C@H](CCCCN)NC(=O)[C@@H](NC(=O)[C@H](CCCCN)NC(=O)[C@@H](N)CCCNC(=N)N)[C@@H](C)O [Example No. 2, ArgLysThrLysGlySerGlyPhePheOMe] (H-RKTKGSGFF-OMe) | 0.15 | – | – | 100 | 100 | – | – | – | – | – | – | – |
| COC(=O)[C@H](Cc1ccccc1)NC(=O)[C@@H](NC(=O)[C@H](Cc1ccccc1)NC(=O)[C@H](Cc1ccccc1)NC(=O)CNC(=O)[C@H](CO)NC(=O)CNC(=O)[C@H](CCCCN)NC(=O)[C@@H](NC(=O)[C@@H](N)CCCCN)[C@@H](C)O)C(C)C [Example No. 3, LysThrLysGlySerGlyPhePheValPheOMe] (H-KTKGSGFFVF-OMe) | 1 | – | – | 10 | 10 | None | Partial | cross-desensitisation | 6 | 6 | 17 | 47 |
| COC(=O)[C@H](Cc1ccccc1)NC(=O)[C@H](Cc1ccccc1)NC(=O)CNC(=O)[C@H](CO)NC(=O)CNC(=O)[C@H](CCCCN)NC(=O)[C@@H](NC(=O)[C@H](CCCCN)NC(=O)[C@H](CCCNC(=N)N)NC(=O)[C@@H]1CCCN1)[C@@H](C)O [Example No. 5, ProArgLysThrLysGlySerGlyPhePheOMe] (H-PRKTKGSGFF-OMe) | 9.2 | – | – | 100 | 100 | – | – | – | – | – | – | – |
| KTKGSGFF-OH [Example No. 6, LysThrLysGlySerGlyPhePheOH] | 10 | – | – | 100 | 10000 | – | – | – | – | – | – | – |
| KTKGSGFFVF-OH [Example No. 4, LysThrLysGlySerGlyPhePheValPheOH] | 33 | – | – | 100 | 10000 | – | – | – | – | – | – | – |
| XOA: ovalbumen (XOA), the antigen used to immunise Brown Norway rats and to challenge or desensitise their mast cells [reference compound] | – | – | – | – | – | – | – | – | 6 | 6 | 6 | 56 |
